Columns and labels:
[1] = test system: human white adipocyte cell line; assay: Cellular respiration in human white adipocytes; assay type: cell-based; conditions: 10 μM for 4 days
Method: Human immortalized brown and white preadipocytes were obtained from Dr. Yu-Hua Tseng (Joslin Diabetes Center, Harvard Medical School, USA). The generation of the two cell lines from human neck adipose tissue biopsies and immortalization was performed as previously described but from a different donor. Cells were cultured in high glucose DMEM supplemented with 10% FBS and antibiotics. Two days after reaching confluence, cells were treated with 30 μM biotin, 500 nM insulin, 17 μM pantothenate, 100 nM dexamethasone, 2 nM 3,3′,5-Triiodo-L-thyronine, 500 μM IBMX, 30 μM indomethacin and 1 μM rosiglitazone, for 12 days. […]
Cellular respiration was measured using a Seahorse XF24 or XF96 analyzer (Agilent) following known protocols Immortalized brown adipocytes were differentiated in 6-well plates and replated in the Seahorse XF24 plates at a density of 50,000 cells per well using trypsin and collagenase type II. […] Oxygen consumption rates were measured before and after the sequential injection of 1 μM oligomycin, 1 μM FCCP, and 0.5 μM rotenone/antimycin A. For these cells, results were normalized to cell count determined by nuclei fluorescent staining with Hoescht staining imaged on Cytation 5 Imaging Reader and analysis with Gen5 software (BioTek). […] Maximal respiration was determined after FCCP injection.

[2] = molecular target: T1, AKAP1 (Mus musculus, UniProt O08715); assay: Western blot of mitochondria-associated proteins, AKAP1; assay type: cell-based; conditions: brown adipocytes, 10 μM, after 6-8 h
T1 construct: from tissue; host or cells: mouse brown adipose tissue (BAT) lysate; also mouse brown adipocyte extracts
T1 sequence (O08715 30-857): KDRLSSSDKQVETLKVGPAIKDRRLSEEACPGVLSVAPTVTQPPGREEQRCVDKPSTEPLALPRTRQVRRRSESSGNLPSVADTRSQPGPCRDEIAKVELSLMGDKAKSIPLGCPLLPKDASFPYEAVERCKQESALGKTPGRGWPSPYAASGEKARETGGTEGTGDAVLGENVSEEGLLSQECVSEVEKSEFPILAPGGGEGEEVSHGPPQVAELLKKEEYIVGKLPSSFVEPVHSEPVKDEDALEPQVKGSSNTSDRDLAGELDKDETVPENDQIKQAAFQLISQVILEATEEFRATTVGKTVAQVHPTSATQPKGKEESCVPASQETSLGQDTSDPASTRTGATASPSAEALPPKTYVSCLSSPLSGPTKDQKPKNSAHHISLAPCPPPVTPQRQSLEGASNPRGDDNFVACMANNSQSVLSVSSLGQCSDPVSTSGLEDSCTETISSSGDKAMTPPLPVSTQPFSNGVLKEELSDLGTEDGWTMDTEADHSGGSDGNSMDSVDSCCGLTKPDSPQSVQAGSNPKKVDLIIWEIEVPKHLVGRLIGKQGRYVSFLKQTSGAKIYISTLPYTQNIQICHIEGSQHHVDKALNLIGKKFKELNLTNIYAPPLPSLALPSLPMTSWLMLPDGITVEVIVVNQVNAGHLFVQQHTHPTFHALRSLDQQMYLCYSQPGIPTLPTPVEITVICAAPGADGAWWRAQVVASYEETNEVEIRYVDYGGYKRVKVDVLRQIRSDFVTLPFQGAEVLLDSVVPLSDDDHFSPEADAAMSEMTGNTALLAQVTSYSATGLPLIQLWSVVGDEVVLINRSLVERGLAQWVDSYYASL
Method: Cells and tissues were lysed in 10 mM Tris pH 7.5, 10 mM NaCl, 1 mM EDTA and 0.5% Triton X-100, supplemented with complete mini EDTA-free protease (Roche Diagnostics) and phosphatase (Cocktail 2 and 3, Sigma) inhibitors, followed by 10 second sonication. For analysis of mitochondrial proteins, mitochondria were isolated from cells by dual centrifugation, as described. Protein lysates were separated by SDS-PAGE and transferred to a nitrocellulose membrane. Transfer was confirmed by Ponceau staining (P7170, Sigma). After blocking in 5% milk, 0.1% Tween-20 in Tris-buffered saline (TBS), primary antibody was incubated overnight at 4° C. in 5% bovine serum albumin and 0.1% Tween-20 in TBS. Primary antibodies against ACTB (GTX109639, GeneTex), AKAP1 (5203, Cell Signaling), AKAP6 (07-087, Millipore), Cytochrome c (136F3, Cell Signaling), electron transport chain protein complexes (Total OXPHOS rodent WB antibody cocktail ab110413, Abcam), GAPDH (GTX100118, Genetex), active p38 MAPK (V1211, Promega), total p38 MAPK (8690, Cell Signaling), PGC1α (AB3242, Millipore), phospho-(Ser/Thr) PKA substrate (9621, Cell Signaling), PKA C-α (4782, Cell Signaling), PKA RII-β (ab75993, Abcam), and UCP1 (662045, Calbiochem) were used at 1:2000. […] Quantification using representative bands from the Ponceau staining was performed with ImageJ. […]

COc1ccc(NC(=O)CSc2nc3ccccc3c(=O)[nH]2)c(OC)c1 [Z160]
increased: maximal respiration [1] | mitochondrial respiration (uncoupled) [1] | AKAP1 protein levels in the mitochondrial fraction [2]
